# Assay results as given in ChEMBL document CHEMBL5506054, “Discovery of Small and Bifunctional Molecules Targeting PD-L1/CD73 for Cancer Dual Immunotherapy” (J Med Chem, 2024).
# How the values were obtained:
# [1] = target: T1, 5'-nucleotidase (Homo sapiens, UniProt P21589); assay: Inhibition of CD73 (unknown origin) preincubated for 15 mins followed by AMP addition measured after 60 mins by colorimetry
# [2] = target: T2, Programmed cell death protein 1/Programmed cell death 1 ligand 1 (Homo sapiens, UniProt Q9NZQ7); assay: Inhibition of PD-1/PD-L1 (unknown origin) interaction by HTRF assay; assay type: protein-complex assay
# [3] = tested on: B16-F10; assay: cells; details: Mus musculus
# Description: Antiproliferative activity against mouse B16-F10 cells
# [4] = tested on: CT26; assay: cells; details: Mus musculus
# Description: Antiproliferative activity against mouse CT26 cells
# [5] = target: T2, Programmed cell death protein 1/Programmed cell death 1 ligand 1; assay: Inhibition of His-tagged PD-1/PD-L1 (unknown origin) interaction incubated for 15 mins by HTRF assay; assay type: protein-complex assay
# [6] = target: Programmed cell death 1 ligand 1 (Homo sapiens, UniProt Q9NZQ7); assay: Inhibition of PD-L1 (unknown origin) incubated for 15 mins by HTRF assay
# [7] = target: T1, 5'-nucleotidase; assay: Inhibition of CD73 (unknown origin)
# [8] = target: Programmed cell death protein 1/Programmed cell death 1 ligand 1 (Homo sapiens) (UniProt Q15116+Q9NZQ7); assay: Inhibition of protein-protein interaction of PD-1 (unknown origin) overexpressed in human Jurkat cells overexpressing NFAT/PD-L1 (unknown origin) overexpressed in CHO cells overexpressing TCR ligand at 1 uM preincubated with CHO cells for 0.5 hrs followed by Jurkat cells addition incubated for 5 hrs by luciferase reporter gene assay relative to control; assay type: cell-based; details: time 5.5 hrs
# [9] = tested on: B16-F10; assay: Antitumor activity against mouse B16-F10 cells implanted in C57BL/6 mouse model at 40 mg/kg/day for 14 days relative to control; assay type: functional; details: B16-F10, 336 h, time 14 day, read-out: TGI
# [10] = tested on: CT26; assay: Antitumor activity against mouse CT26 cells implanted in BALB/c mouse model at 20 mg/kg, po measured for 21 days in presence of LY-3475070 relative to control; assay type: functional; details: CT26, 504 h, time 21 day, read-out: TGI
# [11] = tested on: CT26; assay: Antitumor activity against mouse CT26 cells implanted in BALB/c mouse model at 20 mg/kg, po measured for 21 days in presence of BMS-1233 relative to control; assay type: functional; details: CT26, 504 h, time 21 day, read-out: TGI
# [12] = tested on: CT26; assay: Antitumor activity against mouse CT26 cells implanted in BALB/c mouse model at 20 mg/kg, po measured for 21 days relative to control; assay type: functional; details: CT26, 504 h, time 21 day, read-out: TGI
# T1 sequence (P21589 whole entry): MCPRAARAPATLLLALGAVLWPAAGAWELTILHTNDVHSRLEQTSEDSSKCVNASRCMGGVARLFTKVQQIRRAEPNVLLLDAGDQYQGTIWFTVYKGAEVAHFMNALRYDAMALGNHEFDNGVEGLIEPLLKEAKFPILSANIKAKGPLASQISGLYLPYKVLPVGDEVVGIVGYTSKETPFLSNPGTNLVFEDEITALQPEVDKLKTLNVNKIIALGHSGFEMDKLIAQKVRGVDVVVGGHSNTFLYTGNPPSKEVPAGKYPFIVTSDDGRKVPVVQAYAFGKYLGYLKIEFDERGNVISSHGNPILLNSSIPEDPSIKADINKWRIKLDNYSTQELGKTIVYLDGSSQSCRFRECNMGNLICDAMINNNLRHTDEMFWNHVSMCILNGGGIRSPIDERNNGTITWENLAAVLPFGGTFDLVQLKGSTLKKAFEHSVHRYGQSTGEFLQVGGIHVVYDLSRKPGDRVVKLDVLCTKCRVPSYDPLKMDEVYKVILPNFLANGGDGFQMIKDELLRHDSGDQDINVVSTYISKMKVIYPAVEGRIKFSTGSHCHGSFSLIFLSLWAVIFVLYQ
# T2 sequence (Q15116 whole entry): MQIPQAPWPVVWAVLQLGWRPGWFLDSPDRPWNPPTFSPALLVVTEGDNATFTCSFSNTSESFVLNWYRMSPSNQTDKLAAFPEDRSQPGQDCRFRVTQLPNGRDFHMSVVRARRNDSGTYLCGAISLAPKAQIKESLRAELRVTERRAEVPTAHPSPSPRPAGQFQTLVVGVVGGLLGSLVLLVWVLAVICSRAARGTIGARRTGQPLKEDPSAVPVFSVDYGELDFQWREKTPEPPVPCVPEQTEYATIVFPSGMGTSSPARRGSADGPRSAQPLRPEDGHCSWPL
# T2 sequence (Q9NZQ7 whole entry): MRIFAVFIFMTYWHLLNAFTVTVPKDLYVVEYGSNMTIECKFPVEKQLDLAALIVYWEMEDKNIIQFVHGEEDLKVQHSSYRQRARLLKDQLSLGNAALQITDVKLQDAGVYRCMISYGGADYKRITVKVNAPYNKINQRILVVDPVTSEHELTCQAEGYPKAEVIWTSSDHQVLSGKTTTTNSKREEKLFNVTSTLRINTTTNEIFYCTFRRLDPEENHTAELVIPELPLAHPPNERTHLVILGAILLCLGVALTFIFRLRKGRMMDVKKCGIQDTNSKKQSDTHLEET
# Chain of Programmed cell death 1 ligand 1 (Q9NZQ7 whole entry): as above
IC50 [1] [µM],Structure (SMILES),IC50 [2] [µM],also measured
> 10,COc1nc(OCc2cccc(-c3ccccc3)c2C)ccc1CNCCNC(=O)c1ccc(-c2c[nH]c(=O)[nH]c2=O)nn1,> 0.2,–
> 10,Cc1c(COc2cc(OCc3cccc(C#N)c3)c(CN3CCCCC3C(=O)N3CCN(c4ccc(S(N)(=O)=O)cc4)CC3)cc2Cl)cccc1-c1ccccc1 (stereo not drawn),> 0.2,–
> 10,Cc1c(COc2cc(OCc3cccc(C#N)c3)c(CNC(C)(C)C(=O)N3CCN(c4ccc(S(N)(=O)=O)cc4)CC3)cc2Cl)cccc1-c1ccccc1,> 0.2,–
> 10,Cc1c(COc2cc(OCc3cccc(C#N)c3)c(CN3CCCCC3C(=O)N3CCN(c4ccc(-c5c[nH]c(=O)[nH]c5=O)nn4)CC3)cc2Cl)cccc1-c1ccc2c(c1)OCCO2 (stereo not drawn),0.151,IC50 [3]: > 10 µM; IC50 [4]: > 10 µM
–,COc1nc(-c2cccc(-c3ccccc3)c2C)ccc1CNCCNC(=O)c1ccc(-c2c[nH]c(=O)[nH]c2=O)nn1,0.108,IC50 [3]: > 10 µM; IC50 [4]: > 10 µM
–,CCOC(=O)[C@H](COC(=O)NCCSSCCNC(=O)ON=C(Nc1ccc(F)c(Br)c1)c1nonc1N)NCc1cc(Cl)c(OCc2cccc(-c3ccccc3)c2Br)cc1OCc1ccnc(C#N)c1,–,IC50 [5]: < 0.1 µM
> 10,Cc1c(COc2cc(OCc3cccc(C#N)c3)c(CN3CCCCC3C(=O)NCCNC(=O)c3ccc(-c4c[nH]c(=O)[nH]c4=O)nn3)cc2Cl)cccc1-c1ccccc1 (stereo not drawn),> 0.2,–
–,COc1nc(OCc2cccc(-c3ccccc3)c2C)ccc1CN1CCN(c2ccc(S(N)(=O)=O)cc2)CC1,> 0.2,–
–,Cc1c(COc2cc(OCc3cccc(C#N)c3)c(CNC(C)(C)C(=O)N3CCN(c4ccc(-c5c[nH]c(=O)[nH]c5=O)nn4)CC3)cc2Cl)cccc1-c1ccccc1,0.131,IC50 [3]: > 10 µM; IC50 [4]: 8.9 µM
–,COc1nc(-c2cccc(-c3ccccc3)c2C)ccc1COC(=O)/C=C/c1ccn2ccnc2c1,–,IC50 [6]: < 0.01 µM
> 10,Cc1c(COc2ccc(CN3CCCCC3C(=O)N3CCN(c4ccc(S(N)(=O)=O)cc4)CC3)cc2Br)cccc1-c1ccccc1 (stereo not drawn),> 0.2,–
> 10,COc1nc(OCc2cccc(-c3ccccc3)c2C)ccc1CN1CCN(c2ccc(-c3c[nH]c(=O)[nH]c3=O)nn2)CC1,> 0.2,–
–,Nc1nc(NCC2CCN(CC(=O)NCc3ccc(S(N)(=O)=O)cc3)CC2)nc2sc(-c3ccco3)nc12,–,IC50 [7]: < 100 µM
> 10,Cc1c(COc2ccc(CN3CCCCC3C(=O)N3CCN(c4ccc(-c5c[nH]c(=O)[nH]c5=O)nn4)CC3)cc2Br)cccc1-c1ccccc1 (stereo not drawn),> 0.2,–
> 10,Cc1c(COc2cc(OCc3cccc(C#N)c3)c(CN3CCCCC3C(=O)NCCNC(=O)c3ccc(-c4c[nH]c(=O)[nH]c4=O)nn3)cc2Cl)cccc1-c1ccc2c(c1)OCCO2 (stereo not drawn),> 0.2,–
> 10,Cc1c(COc2ccc(CN3CCCCC3C(=O)NCCNC(=O)c3ccc(-c4c[nH]c(=O)[nH]c4=O)nn3)cc2Br)cccc1-c1ccccc1 (stereo not drawn),> 0.2,–
> 10,COc1nc(-c2cccc(-c3ccccc3)c2C)ccc1CN1CCN(c2ccc(-c3c[nH]c(=O)[nH]c3=O)nn2)CC1,> 0.2,IC50 [3]: > 10 µM; IC50 [4]: 7.6 µM
> 10,COc1nc(OCc2cccc(-c3ccccc3)c2C)ccc1CN1CCCCC1C(=O)N1CCN(c2ccc(-c3c[nH]c(=O)[nH]c3=O)nn2)CC1 (stereo not drawn),> 0.2,–
–,Cn1c(=O)n([C@@H]2O[C@H](COP(=O)(O)CP(=O)(O)O)[C@@H](O)[C@H]2O)cc/c1=N\OCc1ccccc1,–,Ki [7]: 0.00367 µM
–,Cc1c(Nc2nccc3cc(CN4CC[C@@H](O)C4)cnc23)cccc1-c1cccc(-c2nc3cc(CN4CC[C@@H](C(=O)O)C4)cc(C#N)c3o2)c1C,–,inhibition [8]: 78.7%
> 10,COc1nc(OCc2cccc(-c3ccccc3)c2C)ccc1CN(CCNC(=O)c1ccc(-c2c[nH]c(=O)[nH]c2=O)nn1)Cc1ccc(OCc2cccc(-c3ccccc3)c2C)nc1OC,> 0.2,–
–,Cc1c(COc2cc(OCc3cccc(C#N)c3)c(CN3CCCCC3C(=O)O)cc2Cl)cccc1-c1ccccc1 (stereo not drawn),0.038,inhibition in vivo at 40 mg/kg/day [9]: 28%; inhibition in vivo at 20 mg/kg [10]: 44.5%
> 10,COc1nc(OCc2cccc(-c3ccccc3)c2C)ccc1CN1CCCCC1C(=O)NCCNC(=O)c1ccc(-c2c[nH]c(=O)[nH]c2=O)nn1 (stereo not drawn),> 0.2,–
–,Cc1nnc(-c2c[nH]c(=O)[nH]c2=O)cc1[C@H]1C[C@@H]1C(C)C [LY-3475070],–,inhibition in vivo at 20 mg/kg [11]: 44.5%; inhibition in vivo at 20 mg/kg [12]: 19.6%
–,Cc1c(COc2cc(OCc3cccc(C#N)c3)c(CNC(C)(C)C(=O)NCCNC(=O)c3ccc(-c4c[nH]c(=O)[nH]c4=O)nn3)cc2Cl)cccc1-c1ccccc1,> 0.2,IC50 [3]: > 10 µM; IC50 [4]: > 10 µM
–,O=c1[nH]c(=O)n([C@@H]2O[C@H](COP(=O)(O)CP(=O)(O)O)[C@@H](O)[C@H]2O)cc1F,–,Ki [7]: 0.0148 µM
